From ChEMBL document CHEMBL4627312, “Anilinopyrazines as potential mitochondrial uncouplers” (Bioorg Med Chem Lett, 2020)
Activity calls are given as the source filed them. The rule behind the calls is not given here.

System: not listed separately
Test: Induction of mitochondrial uncoupling in rat L6 cells assessed as oxygen consumption rate measured after 45 to 90 mins by seahorse XFe96 analyser based assay
Assay type: mitochondria, Mitochondria
Settings: not given

| Structure (SMILES) | EC50 [µM] |
| --- | --- |
| FC(F)(F)c1cc(Nc2nccnc2Nc2cc(C(F)(F)F)cc(C(F)(F)F)c2)cc(C(F)(F)F)c1 | 17 |
| Fc1cc(C(F)(F)F)ccc1Nc1nccnc1Nc1ccc(C(F)(F)F)cc1F | 8.5 |

The remaining lines, values ahead:

| EC50 [µM] | Structure (SMILES) |
| --- | --- |
| 5.9 | FC(F)(F)Oc1ccc(Nc2nccnc2Nc2ccc(OC(F)(F)F)cc2)cc1 |
| 2.5 | FC(F)(F)c1ccc(Nc2nccnc2Nc2ccc(C(F)(F)F)cc2)cc1 |
| 3 | FC(F)(F)c1cccc(Nc2nccnc2Nc2cccc(C(F)(F)F)c2)c1 |
| 12 | FC(F)(F)Oc1cccc(Nc2nccnc2Nc2cccc(OC(F)(F)F)c2)c1 |

System: L6
Test: Induction of mitochondrial uncoupling in rat L6 cells assessed as oxygen consumption rate measured after 45 to 90 mins by seahorse XFe96 analyser based assay relative to control
Settings: Mitochondria

| Structure (SMILES) | Emax [%] |
| --- | --- |
| COc1ccccc1Nc1nc(Nc2ccccc2OC)nc(Nc2ccccc2OC)n1 | 103 |
| Fc1ccc(Nc2nccnc2Nc2ccc(F)cc2F)c(F)c1 | 109 |
| COc1cccc(Nc2nc(Nc3cccc(OC)c3)nc(Nc3cccc(OC)c3)n2)c1 | 103 |
| FC(F)(F)c1cc(Nc2cncc(Nc3cc(C(F)(F)F)cc(C(F)(F)F)c3)n2)cc(C(F)(F)F)c1 | 105 |
| FC(F)(F)c1ccccc1Nc1nccnc1Nc1ccccc1C(F)(F)F | 104 |
| FC(F)(F)c1cc(Nc2nccnc2Nc2cc(C(F)(F)F)cc(C(F)(F)F)c2)cc(C(F)(F)F)c1 | 148 |
| Fc1ccccc1Nc1nc(Nc2ccccc2F)nc(Nc2ccccc2F)n1 | 102 |
| COc1ccc(Nc2nc(Nc3ccc(OC)cc3)nc(Nc3ccc(OC)cc3)n2)cc1 | 104 |
| COc1cccc(Nc2nccnc2Nc2cccc(OC)c2)c1 | 101 |
| Fc1ccc(C(F)(F)F)cc1Nc1nccnc1Nc1cc(C(F)(F)F)ccc1F | 100 |
| Fc1cccc(Nc2nccnc2Nc2cccc(F)c2)c1 | 106 |
| Fc1cccc(Nc2nccnc2Nc2cccc(F)c2F)c1F | 108 |
| COc1ccccc1Nc1nccnc1Nc1ccccc1OC | 102 |
| FC(F)(F)c1ccc(Nc2nc(Nc3ccc(C(F)(F)F)cc3)nc(Nc3ccc(C(F)(F)F)cc3)n2)cc1 | 100 |
| Fc1cc(C(F)(F)F)ccc1Nc1nccnc1Nc1ccc(C(F)(F)F)cc1F | 164 |
| FC(F)(F)c1cccc(Nc2nc(Nc3cccc(C(F)(F)F)c3)nc(Nc3cccc(C(F)(F)F)c3)n2)c1 | 103 |

Results, then the compound that gave them:

| Emax [%] | Structure (SMILES) |
| --- | --- |
| 107 | FC(F)(F)c1ccc(Nc2cnc(Nc3ccc(C(F)(F)F)cc3)cn2)cc1 |
| 258 | FC(F)(F)Oc1ccc(Nc2nccnc2Nc2ccc(OC(F)(F)F)cc2)cc1 |
| 101 | FC(F)(F)Oc1cccc(Nc2cnc(Nc3cccc(OC(F)(F)F)c3)cn2)c1 |
| 114 | FC(F)(F)Oc1ccccc1Nc1nccnc1Nc1ccccc1OC(F)(F)F |
| 105 | FC(F)(F)Oc1cccc(Nc2cncc(Nc3cccc(OC(F)(F)F)c3)n2)c1 |
| 260 | FC(F)(F)c1ccc(Nc2nccnc2Nc2ccc(C(F)(F)F)cc2)cc1 |
| 181 | FC(F)(F)c1cccc(Nc2nccnc2Nc2cccc(C(F)(F)F)c2)c1 |
| 101 | Fc1ccc(Nc2nccnc2Nc2ccc(F)cc2)cc1 |
| 102 | FC(F)(F)Oc1ccc(Nc2cnc(Nc3ccc(OC(F)(F)F)cc3)cn2)cc1 |
| 103 | FC(F)(F)c1ccc(Nc2cncc(Nc3ccc(C(F)(F)F)cc3)n2)cc1 |
| 343 | FC(F)(F)Oc1cccc(Nc2nccnc2Nc2cccc(OC(F)(F)F)c2)c1 |
| 107 | FC(F)(F)Oc1ccc(Nc2cncc(Nc3ccc(OC(F)(F)F)cc3)n2)cc1 |
| 140 | FC(F)(F)c1cccc(Nc2cnc(Nc3cccc(C(F)(F)F)c3)cn2)c1 |

System: L6
Test: Induction of mitochondrial uncoupling in rat L6 cells assessed as oxygen consumption rate at 0.01 to 50 uM measured after 45 to 90 mins by seahorse XFe96 analyser based assay
Settings: Mitochondria

| Structure (SMILES) | Activity |
| --- | --- |
| COc1ccccc1Nc1nc(Nc2ccccc2OC)nc(Nc2ccccc2OC)n1 | inactive |
| Fc1ccc(Nc2nccnc2Nc2ccc(F)cc2F)c(F)c1 | inactive |
| COc1cccc(Nc2nc(Nc3cccc(OC)c3)nc(Nc3cccc(OC)c3)n2)c1 | inactive |
| FC(F)(F)c1cc(Nc2cncc(Nc3cc(C(F)(F)F)cc(C(F)(F)F)c3)n2)cc(C(F)(F)F)c1 | inactive |
| Fc1ccccc1Nc1nc(Nc2ccccc2F)nc(Nc2ccccc2F)n1 | inactive |
| COc1ccc(Nc2nc(Nc3ccc(OC)cc3)nc(Nc3ccc(OC)cc3)n2)cc1 | inactive |
| Fc1cccc(Nc2nccnc2Nc2cccc(F)c2)c1 | inactive |
| Fc1cccc(Nc2nccnc2Nc2cccc(F)c2F)c1F | inactive |
| FC(F)(F)c1ccc(Nc2nc(Nc3ccc(C(F)(F)F)cc3)nc(Nc3ccc(C(F)(F)F)cc3)n2)cc1 | inactive |
| FC(F)(F)c1cccc(Nc2nc(Nc3cccc(C(F)(F)F)c3)nc(Nc3cccc(C(F)(F)F)c3)n2)c1 | inactive |

Results, then the compound that gave them:

| Activity | Structure (SMILES) |
| --- | --- |
| inactive | FC(F)(F)c1ccc(Nc2cnc(Nc3ccc(C(F)(F)F)cc3)cn2)cc1 |
| inactive | FC(F)(F)Oc1cccc(Nc2cnc(Nc3cccc(OC(F)(F)F)c3)cn2)c1 |
| inactive | FC(F)(F)Oc1ccccc1Nc1nccnc1Nc1ccccc1OC(F)(F)F |
| inactive | FC(F)(F)Oc1cccc(Nc2cncc(Nc3cccc(OC(F)(F)F)c3)n2)c1 |
| inactive | Fc1ccc(Nc2nccnc2Nc2ccc(F)cc2)cc1 |
| inactive | FC(F)(F)Oc1ccc(Nc2cnc(Nc3ccc(OC(F)(F)F)cc3)cn2)cc1 |
| inactive | FC(F)(F)c1ccc(Nc2cncc(Nc3ccc(C(F)(F)F)cc3)n2)cc1 |
| inactive | FC(F)(F)Oc1ccc(Nc2cncc(Nc3ccc(OC(F)(F)F)cc3)n2)cc1 |
| inactive | FC(F)(F)c1cccc(Nc2cnc(Nc3cccc(C(F)(F)F)c3)cn2)c1 |
